# Source: ChEMBL document CHEMBL1150212, “Antitumor agents, 129. Tannins and related compounds as selective cytotoxic agents” (1992)
# Assays:
# Assay type in all cases: functional
# Conditions in all cases: read-out: ED50 (the source's name)
# [1] = Cytotoxicity against human […] cells by tetrazolium salt-based colorimetric assay
# KB = assay: Cytotoxicity against human KB cells by tetrazolium salt-based colorimetric assay
# A549 = assay: Cytotoxicity against human A549 cells by tetrazolium salt-based colorimetric assay
# HCT-8 = assay: Cytotoxicity against human HCT8 cells by tetrazolium salt-based colorimetric assay
# TE-671 = assay: Cytotoxicity against human TE671 cells by tetrazolium salt-based colorimetric assay
SMILES,EC50 [1] [µg/mL],EC50 (KB) [µg/mL],EC50 (A549) [µg/mL],EC50 (HCT-8) [µg/mL],EC50 (TE-671) [µg/mL]
O=C(O[C@@H]1O[C@@H]2COC(=O)c3cc(O)c(O)c(O)c3-c3c(cc(O)c(O)c3O)C(=O)O[C@H]2[C@@H]2OC(=O)c3cc(O)c(O)c(O)c3-c3c(cc(O)c(O)c3O)C(=O)O[C@@H]12)c1cc(O)c(O)c(Oc2c(O)c(O)c(O)c3c2C(=O)O[C@H]2[C@@H]4OC(=O)c5cc(O)c(O)c(O)c5-c5c(cc(O)c(O)c5O)C(=O)O[C@H]4[C@@H](OC(=O)c4cc(O)c(O)c(Oc5c(O)c(O)c(O)c6c5C(=O)O[C@H]5[C@@H]7OC(=O)c8cc(O)c(O)c(O)c8-c8c(cc(O)c(O)c8O)C(=O)O[C@H]7[C@H](OC(=O)c7cc(O)c(O)c(Oc8c(O)c(O)c(O)c9c8C(=O)O[C@H]8[C@@H]%10OC(=O)c%11cc(O)c(O)c(O)c%11-c%11c(cc(O)c(O)c%11O)C(=O)O[C@H]%10[C@@H](OC(=O)c%10cc(O)c(O)c(O)c%10)O[C@@H]8COC(=O)c8cc(O)c(O)c(O)c8-9)c7)O[C@@H]5COC(=O)c5cc(O)c(O)c(O)c5-6)c4)O[C@@H]2COC(=O)c2cc(O)c(O)c(O)c2-3)c1,0.5,> 10,> 10,> 10,> 10
O=C(O[C@@H]1O[C@@H]2COC(=O)c3cc(O)c(O)c(O)c3-c3c(cc(O)c(O)c3O)C(=O)O[C@H]2[C@H](O)[C@H]1O)c1cc(O)c(O)c(O)c1 [STRICTININ],4.86,> 10,> 10,> 10,> 10
